Laboratory results from patent publication US20220106296A1, “CYANOTRIAZOLE COMPOUNDS AND USES THEREOF” (Novartis AG, priority 2018, published 2022).

Assays:
[1] = tested on: T. b. brucei Lister427 bloodstream form parasites; assay: T. b. brucei growth inhibition assay (CellTiter-Glo, 48 hours); assay type: cell-based; conditions: Trypanosoma brucei
Summary of the method: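 1×10^4 bloodstream-form parasites/well in HMI-9 medium exposed to 10-point, 3-fold compound dilutions for 48 h at 37 °C, 5% CO2. Parasite number quantified as intracellular ATP by CellTiter-Glo luminescence, normalized to DMSO controls for IC50 calculation.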

[2] = tested on: intracellular T. cruzi amastigotes; assay: T. cruzi amastigote growth inhibition assay (NIH 3T3 host cells, β-galactosidase readout); assay type: cell-based; conditions: Trypanosoma cruzi, NIH3T3, read-out: (c) T.c.* IC50
Description: NIH 3T3 fibroblast cells (ATCC) were maintained in RPMI-1640 medium (Life Technologies) supplemented with 10% heat-inactivated fetal bovine serum and 100 IU penicillin/100 μg/ml streptomycin at 37° C./5% CO2. T. cruzi Tulahuen parasites constitutively expressing E. coli β-galactosidase were maintained in tissue culture as an infection in NIH 3T3 fibroblast cells. Briefly, 2×10^7 T. cruzi trypomastigotes were used to infect 6×10^5 NIH 3T3 cells growing in T75 CELLSTAR tissue culture flasks and cultured at 37° C./5% CO2 until proliferating intracellular parasites lysed host 3T3 cells and were released into the culture medium (typically 6-7 days). During the infection, the tissue culture medium was changed every two days. Number of T. cruzi trypomastigotes present in 1 ml of medium was determined using a haemocytometer.
To determine compound potency on intracellular T. cruzi amastigotes, NIH 3T3 cells were re-suspended in phenol red-free RPMI-1640 medium containing 3% heat-inactivated fetal bovine serum and 100 IU penicillin/100 μg/ml streptomycin, seeded at 1,000 cells/well (40 μl) in white, clear bottom 384-well plates (Greiner Bio-One), and incubated overnight at 37° C./5% CO2. The following day, 100 nl of each compound in DMSO were transferred to individual plate wells by Echo 555 acoustic liquid handling system. After one hour incubation, 1×10^6 of tissue culture-derived T. cruzi trypomastigotes, in 10 μl of phenol red-free RPMI-1640 medium supplemented with 3% heat-inactivated fetal bovine serum and 100 IU penicillin/100 μg/ml streptomycin were added to each well. Plates were then incubated for 6 days at 37° C./5% CO2. Intracellular T. cruzi parasites were quantified by measuring the activity of parasite-expressed β-galactosidase. Ten microliters of a chromogenic β-galactosidase substrate solution (0.6 mM chlorophenol red-β-D-galactopyranoside/0.6% NP-40 in PBS; both reagents from Calbiochem) were added to each well and incubated for 2 h at room temperature. After incubation, absorption was measured at 570 nm on SpectraMax M2 plate reader (Molecular Devices). Measured absorbance values in wells with compounds were divided by the average absorbance value of the plate DMSO controls, and used for calculation of compound EC50 values as described above.

[3] = tested on: stage I mouse model, hemolymphatic (blood stream) form of human infection; assay: Stage I mouse model of HAT; assay type: in vivo
Text: (§1) Based on the favorable in vitro and in vivo pharmacological properties, selected cyanotraizole compounds were chosen for testing in stage I and stage II mice models. The stage I mouse model represents the hemolymphatic (blood stream) form of human infection.

[4] = tested on: stage II mouse model, CNS form of the disease; assay: Stage II mouse model of HAT; assay type: in vivo
Text: as §1

[5] = tested on: Leishmania donovani axenic amastigote; assay: Growth inhibition of Leishmania donovani axenic amastigote; assay type: cell-based; conditions: L. donovani growth inhibition, read-out: (d) L.d* IC50
Description: Leishmania donovani axenic amastigote parasites are grown at 37° C., 5% CO2 in media made of RPMI 1640, 4 mM L-glutamine, 20% heat inactivated FBS, 100 units/ml of penicillin and 100 μg/ml of streptomycin, 23 μM Folic Acid, 100 μM Adenosine, 22 mM D-glucose, 25 mM MES. The pH of media is adjusted to 5.5 at 37° C. using HCl. 20 μL of media is first dispensed into 384 well plates and 100 nL of the compounds of invention in DMSO are added to the plate wells. At the same time control compounds and DMSO are added to plates to serve as the positive and negative controls, respectively. 40 μL of parasite culture (9600 parasites) are then added to the plate wells. The plates are then placed into incubators. After 2 day incubation, 20 μL of Cell TiterGlo (Promega) is added to the plate wells. The luminescence signal of each well is measured using the Envision reader (Perkin Elmer). The percentage inhibition of 50%, EC50, is calculated for each of the compounds.

T.b. gambinese STIB930 = assay: T.b. gambiense growth inhibition assay; assay type: cell-based; conditions: Trypanosoma brucei, read-out: (b) T.b.g* IC50
Description: Bloodstream form of T. b. brucei Lister427 strain was obtained from the Genomics Institute of the Novartis Research Foundation. This strain was used for carrying out growth inhibition and kill kinetics assays. T. b. gambiense STIB930 and T. b. rhodesiense STIB900 were obtained from Swiss TPH, were used for carrying out the growth inhibition assays. Bloodstream form of T. b. gambiense and T. b. rhodesiense were also grown in HMI-9 media, described above, but the media was supplemented by 5% human serum and 5% heat-inactivated FBS instead of 10% FBS. To determine compound growth inhibitory potency on T. b. brucei Lister427 bloodstream form parasites, 200 nL of 10-point, 3 fold serially diluted compounds in DMSO were transferred to the wells of white, solid bottom 384-well plates (Greiner Bio-One) by either Echo 555 acoustic liquid handling system or Mosquito. Then, 1×10^4 of T. b. brucei parasites in 40 μL of HMI-9 medium were added to each well, and the plates were incubated for 48 hours at 37° C. in 5% CO2 incubators. Parasite numbers in individual plate wells were determined through quantification of intracellular ATP amount. The CellTiter-Glo luminescent cell viability reagent (Promega) was added to plate wells, and ATP-dependent luminescence signal was measured on Tecan M1000 plate Reader after 30 min incubation. Luminescence values in wells with compounds were divided by the average luminescence value of the plate DMSO controls, and used for calculation of compound IC50 values. Similar assay was also used for determining IC50 against T.b. gambinese STIB930 and T. b. rhodesiense STIB900 strains, but the initial concentration of cells used was 3×10^4 parasites/ml.

Row | Structure (SMILES) | IC50 [1] [nM] | IC50 [2] [nM] | cure in stage I mouse model ([3]; 10 mg/kg QD) | cure in stage II mouse model ([4]; 10 mg/kg QD) | IC50 [5] [nM] | cure in stage I mouse model ([3]; 10 mg/kg BID) | cure in stage II mouse model ([4]; 100 mg/kg QD) | IC50 (T.b. gambinese STIB930) [nM] | cure in stage II mouse model ([4]; 15 mg/kg QD)
1 | N#Cc1ncn(CC(=O)N2Cc3ccc(-c4cc(F)cnc4C(F)(F)F)cc3C2)n1 [Example 8, 1-(2-(5-(5-fluoro-2-(trifluoromethyl)pyridin-3-yl)isoindolin-2-yl)-2-oxoethyl)-1H-1,2,4-triazole-3-carbonitrile] | 100 to 1000 | 100 to 1000 | complete cure without relapse | complete cure without relapse |  |  |  |  | 
2 | N#Cc1ncn(CC(=O)N2Cc3ccc(-c4ccc(F)cc4C(F)(F)F)cc3C2)n1 [Example 29, 1-(2-(5-(4-fluoro-2-(trifluoromethyl)phenyl)isoindolin-2-yl)-2-oxoethyl)-1H-1,2,4-triazole-3-carbonitrile] | < 100 | < 100 |  |  | ≥ 1000 | complete cure without relapse | complete cure without relapse | 100 to 1000 | 
3 | N#Cc1ncn(CC(=O)N2Cc3ccc(-c4cc(F)c(F)cc4Cl)cc3C2)n1 [Example 30, 1-(2-(5-(2-chloro-4,5-difluorophenyl)isoindolin-2-yl)-2-oxoethyl)-1H-1,2,4-triazole-3-carbonitrile] | < 100 | < 100 |  |  | ≥ 1000 |  |  | 100 to 1000 | 
4 | COc1ccc(-c2ccc3c(c2)CN(C(=O)Cn2cnc(C#N)n2)C3)c(C(F)(F)F)c1 [Example 31, 1-(2-(5-(4-methoxy-2-(trifluoromethyl)phenyl)isoindolin-2-yl)-2-oxoethyl)-1H-1,2,4-triazole-3-carbonitrile] | < 100 | < 100 |  |  | ≥ 1000 |  |  | 100 to 1000 | 
5 | N#Cc1ncn(CC(=O)N2Cc3ccc(-c4ccccc4Cl)cc3C2)n1 [Example 33, 1-(2-(5-(2-chlorophenyl)isoindolin-2-yl)-2-oxoethyl)-1H-1,2,4-triazole-3-carbonitrile] | 100 to 1000 | < 100 |  |  | ≥ 1000 |  |  | 100 to 1000 | 
6 | COc1ccc(-c2ccc3c(c2)CN(C(=O)Cn2cnc(C#N)n2)C3)c(Cl)c1 [Example 34, 1-(2-(5-(2-chloro-4-methoxyphenyl)isoindolin-2-yl)-2-oxoethyl)-1H-1,2,4-triazole-3-carbonitrile] | 100 to 1000 | < 100 |  |  | ≥ 1000 |  |  | 100 to 1000 | 
7 | N#Cc1ncn(CC(=O)N2Cc3ccc(-c4ccc(F)cc4Cl)cc3C2)n1 [Example 37, 1-(2-(5-(2-chloro-4-fluorophenyl)isoindolin-2-yl)-2-oxoethyl)-1H-1,2,4-triazole-3-carbonitrile] | 100 to 1000 | < 100 |  |  |  |  |  | 100 to 1000 | 
8 | N#Cc1ncn(CC(=O)N2Cc3ccc(-c4ccc(Cl)cc4Cl)cc3C2)n1 [Example 38, 1-(2-(5-(2,4-dichlorophenyl)isoindolin-2-yl)-2-oxoethyl)-1H-1,2,4-triazole-3-carbonitrile] | 100 to 1000 | < 100 |  |  | ≥ 1000 |  |  | 100 to 1000 | 
9 | N#Cc1ccc(F)c(-c2ccc3c(c2)CN(C(=O)Cn2cnc(C#N)n2)C3)c1 [Example 41, 1-(2-(5-(5-cyano-2-fluorophenyl)isoindolin-2-yl)-2-oxoethyl)-1H-1,2,4-triazole-3-carbonitrile] | 100 to 1000 | < 100 |  |  | ≥ 1000 |  |  | 100 to 1000 | 
10 | N#Cc1ncn(CC(=O)N2Cc3ccc(-c4cc(F)c(F)cc4F)cc3C2)n1 [Example 45, 1-(2-oxo-2-(5-(2,4,5-trifluorophenyl)isoindolin-2-yl)ethyl)-1H-1,2,4-triazole-3-carbonitrile] | 100 to 1000 | 100 to 1000 |  |  |  |  |  | 100 to 1000 | 
11 | N#Cc1ncn(CC(=O)N2Cc3ccc(-c4cccnc4C(F)(F)F)cc3C2)n1 [Example 85, 1-(2-oxo-2-(5-(2-(trifluoromethyl)pyridin-3-yl)isoindolin-2-yl)ethyl)-1H-1,2,4-triazole-3-carbonitrile] | < 100 | < 100 | complete cure without relapse |  | ≥ 1000 |  |  | < 100 | complete cure without relapse
